Reference: US20040072824A1, “Methods and compositions for the treatment of cancer” (priority 2001, published 2004)
Counter-ions that a name gives are not always drawn. Like-named read-outs stand apart in the source and are kept apart here.

Key:
[1] = test system: blastic cells from AML patients; test: Inhibition of viability of fresh leukemic cells (trypan blue exclusion); type: cell-based, human; conditions: day 3; for cytotoxicity at 10 µM / cytotoxicity at 1 µM: Homo sapiens
Method: Samples for AML 1 through 5, AML 1 being the least and AML 5 being the most differentiated, were obtained. […] Cells were incubated with or without […] anti-histamine derivatives. Polaramine was included as a negative control. Cell counts were assessed by trypan blue exclusion test at day 3 after the incubation. Morphological analysis was performed using Wright-Giemsa staining on cytocentrifuge preparations. The results were expressed as % inhibition of growth as compared to negative control.

[2] = test system: K562, U937, Jurkat, T47-D, MCF7, BT20 and 184B5 cell lines; test: Cytotoxicity in malignant and immortalized cell lines (manual counting, Alamar assay); type: cell-based; conditions: all of the cell lines tested
Method: These four compounds were added at different concentrations to cultures of various malignant cell lines and normal cells. The cell lines used for these tests were the following:
All leukemic cell lines were grown and used in logarithmic phase. After one day of treatment, the cells were isolated, counted and diluted in a regular growth medium to provide the cell density of about 75×10^3 cells/ml for reading on plates at 48 hours after the treatment, and […] for reading at 144 hours after the treatment.
Several dilutions of each compound tested were added to the wells (12 wells per plate, TPP), and 1 ml of cells from the parent solution was added per well after a line had been completed. The dilutions were made using the culture medium, and following dilutions were tested: control, which contained no compound of this invention; 1:100; 1:1,000; 1:2,000; 1:5,000; and 1:10,000. The starting concentrations for these dilutions were: 50 mg/ml for compound A; 10 mg/ml for compound B; 25 mg/ml for compound C; and 5 mg/ml for compound D. The results were analyzed by manual counting and Alamar reduced assay.
The cells were grown on their respective propagation medium and seeded 24 hours before the compounds are added. The cells were trypsinized, and 50,000 cells/well and 10,000 cells/well were seeded in order to read the plates at 48 hours and 144 hours after being treated by the compounds, respectively.
On the day of the treatment, the medium was replaced by 10 ml each of series dilution of the compounds, consisting of: control, which contained no compound of this invention; 1:100 dilution; 1:1,000 dilution; 1:2,000 dilution; and 1:5,000 dilution. The starting concentrations for these dilutions were: 50 mg/ml for compound A; 10 mg/ml for compound B; 25 mg/ml for compound C; and 5 mg/ml for compound D. The dilution was made using the growth medium.
A tested compound is regarded as being active in cytotoxicity where the percentage of surviving cells after the treatment with the compound is less than 30%.

[3] = test system: MDA-MB-231 (breast cancer line); test: Curative effects on palpable tumors, MDA-MB-231 cells in scid/scid mice; type: in vivo; conditions: 2.5 mg/kg daily once tumors palpable
Method: In this series of experiments, effects of various compounds of the present invention on tumor development were tested using two protocols. The first protocol is directed to the testing of curative effects of these compounds in different cell lines. In this protocol, cancerous cells are inoculated to the animals, and the inoculated animals were left without any further treatment until the development of tumors. As soon as the tumors became palable (4 mm^3), the compounds of this invention were administered daily to the animals.

[4] = test system: K562, U937, MDA-DB231, BT20 and MCF7 cell lines; test: Cytotoxic effects in multi-well plate, 6 days, ATP level (CellTiter-Glo); conditions: 2x10^-9 M to 2x10^-4 M
Method: In order to test the cytotoxic effects of various compounds, a test was developed in a multi-well plate. Two leukemic cell lines, namely K562 and U937, and three breast cancer cell lines, namely MDA-DB231, BT20 and MCF7 were used for this test.
The cells were seeded at low density and were left for 24 hours to recover and reach a new logarithmic phase of growth. Various concentrations of the compounds being tested, ranging from 2×10^−9 M to 2×10^−4 M, were added in triplicate. The mixture was incubated for 6 days, during which approximately 4 doublings of the cell population occurred, to allow the cells to reach subconfluence.
The viability of the cultured cells after the treatment by the compounds was determined by quantifying the level of ATP since the level of ATP is directly proportional to the number of viable cells present in the culture. The ATP level was quantified by using CellTiter-Glo™ (Promega) luminescent test for cell viability.

[5] = 72 h, patient ID 14, FAB AML5, 10^-5 M, read-out: In Vitro Percent Inhibition of Viability

## CN(C)CC[C@@H](c1ccc(Cl)cc1)c1ccccn1 [D, dexchlorpheniramine maleate]
[1]; [5]
  cytotoxicity at 10 µM: 9%
[2]
  cytotoxic activity: little or no cytotoxic activity

## OCCN1CCN(CCCN2c3ccccc3Sc3ccc(Cl)cc32)CC1 [S64, perphenazine]
[3]
  tumor volume: regression of the tumor volume
[1]; 72 h, MEAN over AML patients, 10^-5 M, read-out: In Vitro Percent Inhibition of Viability, MEAN
  cytotoxicity at 10 µM: 36%
[1]; 72 h, MEAN over AML patients, 10^-6 M, read-out: In Vitro Percent Inhibition of Viability, MEAN
  cytotoxicity at 1 µM: 11%
[1]; 72 h, patient ID 3, FAB AML2, 10^-5 M, read-out: In Vitro Percent Inhibition of Viability
  cytotoxicity at 10 µM: 31%
[1]; 72 h, patient ID 3, FAB AML2, 10^-6 M, read-out: In Vitro Percent Inhibition of Viability
  cytotoxicity at 1 µM: 12%
[1]; 72 h, patient ID 4, FAB AML2, 10^-5 M, read-out: In Vitro Percent Inhibition of Viability
  cytotoxicity at 10 µM: 27%
[1]; 72 h, patient ID 4, FAB AML2, 10^-6 M, read-out: In Vitro Percent Inhibition of Viability
  cytotoxicity at 1 µM: 25%
[1]; 72 h, patient ID 5, FAB AML2, 10^-5 M, read-out: In Vitro Percent Inhibition of Viability
  cytotoxicity at 10 µM: 26%
[1]; 72 h, patient ID 5, FAB AML2, 10^-6 M, read-out: In Vitro Percent Inhibition of Viability
  cytotoxicity at 1 µM: 3%
[1]; 72 h, patient ID 10, FAB AML4, 10^-5 M, read-out: In Vitro Percent Inhibition of Viability
  cytotoxicity at 10 µM: 42%
[1]; 72 h, patient ID 10, FAB AML4, 10^-6 M, read-out: In Vitro Percent Inhibition of Viability
  cytotoxicity at 1 µM: 36%
[1]; 72 h, patient ID 11, FAB AML5, 10^-5 M, read-out: In Vitro Percent Inhibition of Viability
  cytotoxicity at 10 µM: 57%
[1]; 72 h, patient ID 11, FAB AML5, 10^-6 M, read-out: In Vitro Percent Inhibition of Viability
  cytotoxicity at 1 µM: 7%
[1]; 72 h, patient ID 12, FAB AML5, 10^-5 M, read-out: In Vitro Percent Inhibition of Viability
  cytotoxicity at 10 µM: 54%
[1]; 72 h, patient ID 13, FAB AML5, 10^-5 M, read-out: In Vitro Percent Inhibition of Viability
  cytotoxicity at 10 µM: 47%
[1]; 72 h, patient ID 13, FAB AML5, 10^-6 M, read-out: In Vitro Percent Inhibition of Viability
  cytotoxicity at 1 µM: 0%
[1]; [5]
  cytotoxicity at 10 µM: 23%
[1]; 72 h, patient ID 14, FAB AML5, 10^-6 M, read-out: In Vitro Percent Inhibition of Viability
  cytotoxicity at 1 µM: 18%
[1]; 72 h, patient ID 15, FAB AML5, 10^-5 M, read-out: In Vitro Percent Inhibition of Viability
  cytotoxicity at 10 µM: 17%
[1]; 72 h, patient ID 15, FAB AML5, 10^-6 M, read-out: In Vitro Percent Inhibition of Viability
  cytotoxicity at 1 µM: 8%
[1]; AML1, 72 h, patient ID 1, FAB AML1, 10^-5 M, read-out: In Vitro Percent Inhibition of Viability
  cytotoxicity at 10 µM: 17%
[1]; AML1, 72 h, patient ID 1, FAB AML1, 10^-6 M, read-out: In Vitro Percent Inhibition of Viability
  cytotoxicity at 1 µM: 8%
[1]; AML1, 72 h, patient ID 2, FAB AML1, 10^-5 M, read-out: In Vitro Percent Inhibition of Viability
  cytotoxicity at 10 µM: 32%
[1]; AML1, 72 h, patient ID 2, FAB AML1, 10^-6 M, read-out: In Vitro Percent Inhibition of Viability
  cytotoxicity at 1 µM: 0%
[1]; AML3, 72 h, patient ID 6, FAB AML3, 10^-5 M, read-out: In Vitro Percent Inhibition of Viability
  cytotoxicity at 10 µM: 35%
[1]; AML3, 72 h, patient ID 6, FAB AML3, 10^-6 M, read-out: In Vitro Percent Inhibition of Viability
  cytotoxicity at 1 µM: 24%
[1]; AML3, 72 h, patient ID 7, FAB AML3, 10^-5 M, read-out: In Vitro Percent Inhibition of Viability
  cytotoxicity at 10 µM: 45%
[1]; AML3, 72 h, patient ID 7, FAB AML3, 10^-6 M, read-out: In Vitro Percent Inhibition of Viability
  cytotoxicity at 1 µM: 0%
[1]; AML3, 72 h, patient ID 8, FAB AML3, 10^-5 M, read-out: In Vitro Percent Inhibition of Viability
  cytotoxicity at 10 µM: 50%
[1]; AML3, 72 h, patient ID 8, FAB AML3, 10^-6 M, read-out: In Vitro Percent Inhibition of Viability
  cytotoxicity at 1 µM: 18%
[1]; AML3, 72 h, patient ID 9, FAB AML3, 10^-5 M, read-out: In Vitro Percent Inhibition of Viability
  cytotoxicity at 10 µM: 35%
[1]; AML3, 72 h, patient ID 9, FAB AML3, 10^-6 M, read-out: In Vitro Percent Inhibition of Viability
  cytotoxicity at 1 µM: 0%
[4]
  cytotoxic effect group: I

## OCCN1CCN(CC/C=C2/c3ccccc3Sc3ccc(C(F)(F)F)cc32)CC1 [i41, flupentixol]
[1]; MEAN over AML patients, 10^-5 M
  In Vitro Percent Inhibition of Viability, MEAN: 50%
[1]; MEAN over AML patients, 10^-6 M
  In Vitro Percent Inhibition of Viability, MEAN: 24%
[1]; patient ID 1, FAB AML1, 10^-5 M
  In Vitro Percent Inhibition of Viability: 20%
[1]; patient ID 1, FAB AML1, 10^-6 M
  In Vitro Percent Inhibition of Viability: 25%
[1]; patient ID 2, FAB AML1, 10^-5 M
  In Vitro Percent Inhibition of Viability: 30%
[1]; patient ID 2, FAB AML1, 10^-6 M
  In Vitro Percent Inhibition of Viability: 0%
[1]; patient ID 3, FAB AML2, 10^-5 M
  In Vitro Percent Inhibition of Viability: 68%
[1]; patient ID 3, FAB AML2, 10^-6 M
  In Vitro Percent Inhibition of Viability: 34%
[1]; patient ID 4, FAB AML2, 10^-5 M
  In Vitro Percent Inhibition of Viability: 38%
[1]; patient ID 4, FAB AML2, 10^-6 M
  In Vitro Percent Inhibition of Viability: 35%
[1]; patient ID 5, FAB AML2, 10^-5 M
  In Vitro Percent Inhibition of Viability: 40%
[1]; patient ID 5, FAB AML2, 10^-6 M
  In Vitro Percent Inhibition of Viability: 1%
[1]; patient ID 6, FAB AML3, 10^-5 M
  In Vitro Percent Inhibition of Viability: 85%
[1]; patient ID 6, FAB AML3, 10^-6 M
  In Vitro Percent Inhibition of Viability: 24%
[1]; patient ID 7, FAB AML3, 10^-5 M
  In Vitro Percent Inhibition of Viability: 50%
[1]; patient ID 7, FAB AML3, 10^-6 M
  In Vitro Percent Inhibition of Viability: 30%
[1]; patient ID 8, FAB AML3, 10^-5 M
  In Vitro Percent Inhibition of Viability: 46%
[1]; patient ID 8, FAB AML3, 10^-6 M
  In Vitro Percent Inhibition of Viability: 38%
[1]; patient ID 9, FAB AML3, 10^-5 M
  In Vitro Percent Inhibition of Viability: 97%
[1]; patient ID 9, FAB AML3, 10^-6 M
  In Vitro Percent Inhibition of Viability: 23%
[1]; patient ID 10, FAB AML4, 10^-5 M
  In Vitro Percent Inhibition of Viability: 55%
[1]; patient ID 10, FAB AML4, 10^-6 M
  In Vitro Percent Inhibition of Viability: 33%
[1]; patient ID 11, FAB AML5, 10^-5 M
  In Vitro Percent Inhibition of Viability: 75%
[1]; patient ID 11, FAB AML5, 10^-6 M
  In Vitro Percent Inhibition of Viability: 36%
[1]; patient ID 12, FAB AML5, 10^-5 M
  In Vitro Percent Inhibition of Viability: 55%
[1]; patient ID 13, FAB AML5, 10^-5 M
  In Vitro Percent Inhibition of Viability: 40%
[1]; patient ID 13, FAB AML5, 10^-6 M
  In Vitro Percent Inhibition of Viability: 24%
[1]; patient ID 14, FAB AML5, 10^-5 M
  In Vitro Percent Inhibition of Viability: 25%
[1]; patient ID 14, FAB AML5, 10^-6 M
  In Vitro Percent Inhibition of Viability: 23%
[1]; patient ID 15, FAB AML5, 10^-5 M
  In Vitro Percent Inhibition of Viability: 27%
[1]; patient ID 15, FAB AML5, 10^-6 M
  In Vitro Percent Inhibition of Viability: 16%
[4]
  cytotoxic effect group: I
